Active and inactive are the calls of the source.
Experiments:
Beta-galactosidase = Beta-galactosidase (Escherichia coli, UniProt Q8VNN2); assay: PubChem AID 485352; type: functional
[1] = target: T1, Type-1 angiotensin II receptor (Homo sapiens, UniProt P30556); assay: antagonism of angiotensin II type 1 receptor – cell-based, uHTS hits, selectivity assay for APJ receptor antagonist project, dose response (AID 463214); type: functional;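 also: antagonist potency against angiotensin II stimulated AT1 response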
T1 sequence (P30556 whole entry): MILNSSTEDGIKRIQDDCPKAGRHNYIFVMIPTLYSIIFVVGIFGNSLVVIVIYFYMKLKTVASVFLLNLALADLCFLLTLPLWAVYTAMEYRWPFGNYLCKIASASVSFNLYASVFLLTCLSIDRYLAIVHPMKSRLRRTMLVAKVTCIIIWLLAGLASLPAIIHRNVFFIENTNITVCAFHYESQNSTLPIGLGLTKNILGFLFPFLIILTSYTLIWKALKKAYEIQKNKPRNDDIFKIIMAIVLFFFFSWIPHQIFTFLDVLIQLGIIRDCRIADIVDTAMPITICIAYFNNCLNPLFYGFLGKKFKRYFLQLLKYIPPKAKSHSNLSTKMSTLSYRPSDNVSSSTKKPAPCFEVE

[2] = target: T2, Nuclear receptor subfamily 0 group B member 1 (Homo sapiens, UniProt P51843); assay: Luminescence-based cell-based high throughput dose response assay for inhibitors of the orphan nuclear receptor subfamily 0, group B, member 1 (DAX1; NR0B1). [Related pubchem assays (depositor defined):AID504766, AID504790]; type: functional
T2 sequence (P51843 whole entry): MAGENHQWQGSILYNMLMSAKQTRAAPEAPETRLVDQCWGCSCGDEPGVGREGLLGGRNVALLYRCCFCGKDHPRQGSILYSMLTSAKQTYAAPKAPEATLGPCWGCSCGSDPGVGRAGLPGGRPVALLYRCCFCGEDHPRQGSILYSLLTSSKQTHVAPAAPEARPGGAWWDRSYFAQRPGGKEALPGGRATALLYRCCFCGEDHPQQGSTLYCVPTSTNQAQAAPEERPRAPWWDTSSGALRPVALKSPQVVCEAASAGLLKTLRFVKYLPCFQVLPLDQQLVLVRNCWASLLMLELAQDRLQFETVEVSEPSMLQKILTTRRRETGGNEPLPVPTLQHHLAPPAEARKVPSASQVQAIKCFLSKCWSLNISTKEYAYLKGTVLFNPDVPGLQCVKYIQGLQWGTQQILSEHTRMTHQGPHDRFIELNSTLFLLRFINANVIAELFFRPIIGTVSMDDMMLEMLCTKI

HEK293 = assay: cells; type: functional, cell-based; settings: Homo sapiens
[3] = target: 5-hydroxytryptamine receptor 5A (Homo sapiens, UniProt P47898); assay: Counterscreen for agonists of OPRM1-OPRD1 heterodimerization: luminescence-based cell-based high throughput dose response assay to identify agonists of 5-hydroxytryptamine (serotonin) 5A receptor (HTR5A). [Related pubchem assays (depositor defined):AID504326, AID504355, AID504692, AID504904, AID504905]; type: functional
Sequence of 5-hydroxytryptamine receptor 5A (P47898 whole entry): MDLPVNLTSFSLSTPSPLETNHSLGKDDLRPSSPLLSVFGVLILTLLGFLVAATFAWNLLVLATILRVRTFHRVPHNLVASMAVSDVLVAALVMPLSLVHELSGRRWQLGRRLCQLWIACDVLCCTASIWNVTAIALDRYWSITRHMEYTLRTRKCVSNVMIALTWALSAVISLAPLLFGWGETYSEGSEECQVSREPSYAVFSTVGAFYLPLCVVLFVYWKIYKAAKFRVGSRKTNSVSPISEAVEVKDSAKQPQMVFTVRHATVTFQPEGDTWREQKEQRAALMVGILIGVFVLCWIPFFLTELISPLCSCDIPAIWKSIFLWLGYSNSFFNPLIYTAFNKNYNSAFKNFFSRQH

Mu-type opioid receptor = Mu-type opioid receptor (Homo sapiens, UniProt P35372); assay: (§1) Counterscreen for agonists of heterodimerization of the mu 1 (OPRM1) and delta 1 (OPRD1) opioid receptors: Luminescence-based cell-based high throughput dose response assay to identify agonists of OPRM1 homodimerization.; type: functional
Sequence of Mu-type opioid receptor (P35372 whole entry): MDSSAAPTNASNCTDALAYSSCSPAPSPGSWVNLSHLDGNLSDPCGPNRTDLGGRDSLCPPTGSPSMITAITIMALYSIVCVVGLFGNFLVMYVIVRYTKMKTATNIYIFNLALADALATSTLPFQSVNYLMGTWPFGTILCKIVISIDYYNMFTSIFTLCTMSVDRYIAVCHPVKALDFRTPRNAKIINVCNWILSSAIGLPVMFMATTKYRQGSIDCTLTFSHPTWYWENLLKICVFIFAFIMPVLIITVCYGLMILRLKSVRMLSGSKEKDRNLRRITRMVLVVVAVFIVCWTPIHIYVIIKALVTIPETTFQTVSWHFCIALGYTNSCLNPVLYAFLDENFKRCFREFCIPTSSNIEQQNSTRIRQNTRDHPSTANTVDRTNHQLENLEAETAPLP

[4] = target: T3, Short transient receptor potential channel 4 (Mus musculus, UniProt Q9QUQ5); assay: calcium entry via TRPC4 opening agents – cell-based, HEK293 TRPC4/mu-opioid, Fluo-4 calcium, dose response (AID 434937); type: functional
T3 sequence (Q9QUQ5 whole entry): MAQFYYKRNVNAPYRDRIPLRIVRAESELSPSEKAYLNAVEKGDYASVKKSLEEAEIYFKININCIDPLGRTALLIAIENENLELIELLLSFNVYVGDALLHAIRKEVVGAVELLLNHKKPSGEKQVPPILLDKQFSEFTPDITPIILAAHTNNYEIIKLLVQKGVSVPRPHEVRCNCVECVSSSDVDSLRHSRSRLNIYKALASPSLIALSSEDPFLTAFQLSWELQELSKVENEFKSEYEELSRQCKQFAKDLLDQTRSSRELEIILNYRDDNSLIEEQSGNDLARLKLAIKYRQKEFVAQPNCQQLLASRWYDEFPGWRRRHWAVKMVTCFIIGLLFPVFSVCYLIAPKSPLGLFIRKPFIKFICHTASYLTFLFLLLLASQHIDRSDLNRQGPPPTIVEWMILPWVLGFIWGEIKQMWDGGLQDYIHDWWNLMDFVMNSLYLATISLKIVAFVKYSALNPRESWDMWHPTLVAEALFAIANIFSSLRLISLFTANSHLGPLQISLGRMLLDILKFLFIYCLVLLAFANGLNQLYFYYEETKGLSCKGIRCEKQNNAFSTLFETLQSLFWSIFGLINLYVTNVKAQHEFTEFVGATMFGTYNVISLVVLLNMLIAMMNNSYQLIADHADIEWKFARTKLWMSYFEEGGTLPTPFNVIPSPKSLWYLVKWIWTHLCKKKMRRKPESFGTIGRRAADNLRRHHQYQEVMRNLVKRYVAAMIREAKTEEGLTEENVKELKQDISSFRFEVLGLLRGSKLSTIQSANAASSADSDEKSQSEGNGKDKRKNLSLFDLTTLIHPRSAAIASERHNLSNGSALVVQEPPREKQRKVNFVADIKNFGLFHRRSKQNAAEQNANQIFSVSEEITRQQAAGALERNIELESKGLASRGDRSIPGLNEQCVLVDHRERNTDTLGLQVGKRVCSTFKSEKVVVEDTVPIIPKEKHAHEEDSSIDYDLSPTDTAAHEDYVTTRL

[5] = target: Delta-type opioid receptor (Homo sapiens, UniProt P41143); assay: as §1, with “of OPRD1” for “of OPRM1”, “homodimerization. [Related pubchem assays (depositor defined):AID504326, AID504355, AID504692, AID504904, AID504905]” for “homodimerization.”; type: functional
Sequence of Delta-type opioid receptor (P41143 whole entry): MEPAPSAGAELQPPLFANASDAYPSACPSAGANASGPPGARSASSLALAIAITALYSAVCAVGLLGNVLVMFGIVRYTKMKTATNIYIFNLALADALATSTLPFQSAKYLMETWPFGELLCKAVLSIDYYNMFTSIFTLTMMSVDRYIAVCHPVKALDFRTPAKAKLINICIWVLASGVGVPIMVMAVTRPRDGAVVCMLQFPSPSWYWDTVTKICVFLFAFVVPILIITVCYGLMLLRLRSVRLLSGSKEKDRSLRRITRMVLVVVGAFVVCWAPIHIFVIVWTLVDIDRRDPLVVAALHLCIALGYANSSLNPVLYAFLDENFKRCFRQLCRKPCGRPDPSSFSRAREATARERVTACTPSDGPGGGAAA

Protein Wnt-3a = Protein Wnt-3a (Mus musculus, UniProt P27467); assay: antagonism of Wnt3a pathway luciferase reporter – Wnt-LIGHT cells, luminescence, selectivity assay for Gli-SUFU antagonist project, dose response (AID 651570); type: functional; settings: read-out: IC50_Mean;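 also: Wnt-LIGHT reporter cells stimulated with conditioned medium from Wnt3a-producing cells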
Sequence of Protein Wnt-3a (P27467 whole entry): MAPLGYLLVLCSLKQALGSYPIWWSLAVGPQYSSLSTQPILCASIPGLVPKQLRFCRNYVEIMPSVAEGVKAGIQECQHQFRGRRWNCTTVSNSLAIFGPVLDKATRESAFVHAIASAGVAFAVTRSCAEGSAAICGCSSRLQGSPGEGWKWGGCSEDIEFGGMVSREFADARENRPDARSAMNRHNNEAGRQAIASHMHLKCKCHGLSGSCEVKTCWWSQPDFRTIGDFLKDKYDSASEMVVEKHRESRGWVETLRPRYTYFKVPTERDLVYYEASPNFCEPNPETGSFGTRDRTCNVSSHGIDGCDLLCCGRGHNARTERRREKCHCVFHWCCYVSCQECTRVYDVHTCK

[6] = target: T4, Microphthalmia-associated transcription factor (Homo sapiens, UniProt O75030); assay: reducers of TRPM1 reporter luminescence, concentration series – cell-based, SK-MEL-5, cherry-picked, set 3, MITF inhibitor project, dose response (AID 493073); type: functional;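 also: SK-MEL-5 melanoma cells with luciferase driven by the MITF target TRPM1 promoter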
T4 sequence (O75030 whole entry): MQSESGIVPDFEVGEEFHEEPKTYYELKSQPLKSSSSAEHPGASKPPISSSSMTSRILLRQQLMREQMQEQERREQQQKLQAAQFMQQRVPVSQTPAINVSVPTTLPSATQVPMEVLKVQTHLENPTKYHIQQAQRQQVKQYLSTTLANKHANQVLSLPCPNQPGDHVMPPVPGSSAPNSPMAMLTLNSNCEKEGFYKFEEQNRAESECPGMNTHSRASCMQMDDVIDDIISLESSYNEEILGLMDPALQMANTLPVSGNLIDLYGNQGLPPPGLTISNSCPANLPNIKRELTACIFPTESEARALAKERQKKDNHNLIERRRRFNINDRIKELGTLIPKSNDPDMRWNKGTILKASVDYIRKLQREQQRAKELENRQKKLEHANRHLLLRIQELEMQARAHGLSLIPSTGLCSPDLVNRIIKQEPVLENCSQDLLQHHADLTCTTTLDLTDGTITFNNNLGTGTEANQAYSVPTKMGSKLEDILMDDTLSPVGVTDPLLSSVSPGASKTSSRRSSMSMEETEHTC

[7] = viability of HCT116 lacking mutant beta-catenin – cell-based, human colon tumor, dose response (AID 1045); type: functional;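 also: HCT116 colon tumor cells with beta catenin knocked out; cells exposed to compound for 60 hours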
A-375 = assay: proliferation inhibition in MITF-low A375 cells – cell-based, cherry-pick samples, set 2, counter-screen for MITF modulator project, dose response (AID 540335); type: functional; settings: Homo sapiens
[8] = viability of PTEN-deleted HCT116 cells – cell-based, HCT116 PTEN knockout, dose response (AID 1047); type: functional;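 also: HCT116 colon tumor cells with PTEN knocked out; cells exposed to compound for 60 hours before readout; potency for loss of cell viability measured by luminescence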
[9] = luciferase reporter signal suppression in cells – H4 neuroglioma cells, luminescence, dose response (AID 1990); type: functional, cell-based
[10] = blockers of bursicon-stimulated LGR2 cAMP reporter – cell-based, HEK293, CRE-luciferase reporter, cherry pick, set 2, dose response (AID 743343); type: functional;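 also: transfected cells were stimulated with diluted bursicon conditioned medium after compound addition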
[11] = toxicity toward HepG2 liver cells – cell-based, plate reader, cherry-pick, antagonist series, cytotoxicity control, dose response (AID 743416); type: functional
[12] = A549 cell cytotoxicity, dose response, cytotoxicity control, plate reader, cherry-pick, antagonist series (AID 743412); type: functional, cell-based
[13] = Luminescence Cell-Based Dose Response HTS to Identify Inhibitors of 5'UTR Stem-Loop Driven Prion Protein mRNA Translation in H4 Neuroglioblastoma Cells. [Related pubchem assays: 1827 (Project Summary), 1813 (Primary HTS)]; type: functional
cells = type: functional, cell-based
[14] = alpha-synuclein stem-loop translation blockers – luminescence, H4 neuroglioblastoma cells, dose confirmation, confirmation (AID 2454); type: functional, cell-based;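 also: H4 neuroglioblastoma cells carrying an alpha-synuclein 5'UTR luciferase reporter; potency for inhibition of the luciferase signal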
[15] = alpha-synuclein stem-loop luciferase translation blockers – H4 neuroglioma cells, luminescence, confirmation (AID 1988); type: functional, cell-based
[16] = blockade of melanocortin 4 receptor signaling – cell-based, plate reader, cherry pick, counter-screen for LGR2 antagonist project, dose response (AID 743444); type: functional;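 also: transfected HEK 293 cells stimulated with alpha-MSH peptide; potency of inhibitors of the alpha-MSH evoked signal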
[17] = viability loss in HEK293 cells – cell-based, plate reader, cherry-picked samples, cytotoxicity control, dose response (AID 743446); type: functional
[18] = luciferase reporter signal reduction – luminescence, H4-C neuroglioblastoma cells, dose response (AID 2458); type: functional, cell-based;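 also: H4 neuroglioblastoma cells stably carrying a luciferase reporter gene fusion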
BJ [19] = assay: cells; type: functional, cell-based; settings: Homo sapiens
[20] = DRD fibroblast viability loss – cell-based, non-viral oncogenic, luminescence, dose response (AID 1934); type: functional; settings: Homo sapiens
BJ [21] = assay: BJ-TERT-LT-ST fibroblast viability loss – cell-based, RAS-independent, luminescence, dose response (AID 1935); type: functional; settings: Homo sapiens;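 also: BJ fibroblasts immortalized with TERT plus LT and ST oncogenes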
BJ [22] = assay: growth inhibition of engineered Ras-driven BJ cells – cell-based, alamar blue fluorescence, cherrypicked samples, dose response (AID 2631); type: functional; settings: Homo sapiens;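 also: confirmatory dose-response assay in RAS-dependent BJ fibroblasts engineered with TERT, LT and ST, with cytotoxicity read by fluorescence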
BJ [23] = assay: BJ-TERT fibroblast viability loss – cell-based, RAS-independent, luminescence, dose response (AID 1933); type: functional; settings: Homo sapiens
[24] = target: Glucose-6-phosphate 1-dehydrogenase (Homo sapiens, UniProt P11413); assay: inhibition of Homo sapiens G6PD, dose series – biochemical, fluorescence, selectivity assay for P. falciparum G6PD inhibitor project, dose response (AID 504792); type: functional
Sequence of Glucose-6-phosphate 1-dehydrogenase (P11413 whole entry): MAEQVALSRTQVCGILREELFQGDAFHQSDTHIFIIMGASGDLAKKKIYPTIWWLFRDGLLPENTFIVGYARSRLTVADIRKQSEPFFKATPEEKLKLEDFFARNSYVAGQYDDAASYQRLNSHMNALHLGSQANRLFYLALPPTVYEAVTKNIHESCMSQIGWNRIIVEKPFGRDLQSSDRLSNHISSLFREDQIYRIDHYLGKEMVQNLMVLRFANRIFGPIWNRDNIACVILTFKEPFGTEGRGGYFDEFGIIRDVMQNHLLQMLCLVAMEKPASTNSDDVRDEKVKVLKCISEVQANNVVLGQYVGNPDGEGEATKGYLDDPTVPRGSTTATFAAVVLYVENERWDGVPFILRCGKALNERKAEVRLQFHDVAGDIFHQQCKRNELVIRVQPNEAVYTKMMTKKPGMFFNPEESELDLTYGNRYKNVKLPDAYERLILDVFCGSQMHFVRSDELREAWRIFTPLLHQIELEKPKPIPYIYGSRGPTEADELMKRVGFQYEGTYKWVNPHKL

Genome polyprotein = Genome polyprotein (dengue virus type 2, UniProt P29990); assay: flavivirus cap methylation enzyme inhibition – biochemical, confirmation dose response, primary screen (AID 588689); type: functional
Sequence of Genome polyprotein (P29990 2492-3391 limits assumed): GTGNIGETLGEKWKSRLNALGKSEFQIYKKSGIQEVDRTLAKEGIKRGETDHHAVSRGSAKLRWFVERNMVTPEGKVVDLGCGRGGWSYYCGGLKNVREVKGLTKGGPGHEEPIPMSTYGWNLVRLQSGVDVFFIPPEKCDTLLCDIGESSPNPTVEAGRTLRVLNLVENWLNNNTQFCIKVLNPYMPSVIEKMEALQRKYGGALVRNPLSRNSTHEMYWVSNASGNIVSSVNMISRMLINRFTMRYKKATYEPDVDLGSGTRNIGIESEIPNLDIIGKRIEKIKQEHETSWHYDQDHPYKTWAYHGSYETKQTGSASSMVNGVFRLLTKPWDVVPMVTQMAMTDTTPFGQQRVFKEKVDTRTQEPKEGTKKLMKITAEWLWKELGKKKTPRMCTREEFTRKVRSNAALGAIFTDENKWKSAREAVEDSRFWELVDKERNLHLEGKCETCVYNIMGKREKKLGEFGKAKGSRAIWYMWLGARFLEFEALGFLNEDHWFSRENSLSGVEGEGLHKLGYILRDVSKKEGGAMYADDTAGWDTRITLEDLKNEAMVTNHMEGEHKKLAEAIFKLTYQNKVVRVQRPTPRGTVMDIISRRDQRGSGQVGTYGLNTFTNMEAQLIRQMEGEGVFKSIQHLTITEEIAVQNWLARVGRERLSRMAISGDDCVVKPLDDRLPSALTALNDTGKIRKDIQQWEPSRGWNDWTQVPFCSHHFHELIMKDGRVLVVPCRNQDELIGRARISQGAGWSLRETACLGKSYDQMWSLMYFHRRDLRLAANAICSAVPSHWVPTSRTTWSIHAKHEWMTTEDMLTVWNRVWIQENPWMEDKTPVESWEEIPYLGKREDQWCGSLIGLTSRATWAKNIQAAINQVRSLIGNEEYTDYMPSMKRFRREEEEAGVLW

Vero [25] = assay: viability of Vero cells under compound – cytotoxicity control for flavivirus capping enzyme inhibitors (AID 588742); type: functional; settings: Chlorocebus sabaeus
Vero [26] = assay: cells; type: functional; settings: Chlorocebus sabaeus
[27] = target: Heat shock protein HSP 90-alpha (Homo sapiens, UniProt P07900); type: functional, organism-based
Beta-arrestin-1 = Beta-arrestin-1 (Homo sapiens, UniProt P49407); assay: beta-arrestin/AP2 interaction blockers, potency – biochemical, cherry pick 1, beta2-adaptin appendage, flow cytometry, dose response (AID 588783); type: functional
Sequence of Beta-arrestin-1 (P49407 whole entry): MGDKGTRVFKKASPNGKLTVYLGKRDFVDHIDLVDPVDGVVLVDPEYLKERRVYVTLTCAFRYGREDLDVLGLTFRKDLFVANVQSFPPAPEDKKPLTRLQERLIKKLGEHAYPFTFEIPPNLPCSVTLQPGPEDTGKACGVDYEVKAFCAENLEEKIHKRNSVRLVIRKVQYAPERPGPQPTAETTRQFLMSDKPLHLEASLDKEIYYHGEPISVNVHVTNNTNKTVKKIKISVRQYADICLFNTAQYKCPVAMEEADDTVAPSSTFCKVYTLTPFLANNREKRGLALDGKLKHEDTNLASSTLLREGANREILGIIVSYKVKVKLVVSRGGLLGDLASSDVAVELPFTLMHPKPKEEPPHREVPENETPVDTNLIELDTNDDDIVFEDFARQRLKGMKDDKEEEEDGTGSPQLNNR

[28] = target: T3, Short transient receptor potential channel 4; assay: potency of mouse TRPC4 calcium flux blockers – cell-based, HEK293 TRPC4/mu-opioid, DAMGO stimulus, Fluo-4, dose response (AID 492994); type: functional
H4 = assay: Luminescence Cell-Based Dose Response HTS to Identify Activators of 5'UTR Stem-Loop Driven Prion Protein mRNA Translation in H4 Neuroglioblastoma Cells. [Related pubchem assays: 1829 (Project Summary), 1814 (Primary HTS)]; type: functional; settings: Homo sapiens
[29] = Luminescence Cell-Based Dose Response HTS to Identify Activators of Luciferase Translation or Activity in H4 […] Cells. [Related pubchem assays: 1829 (Project Summary), 1814 (Primary HTS)]; type: functional

Sequence of Beta-galactosidase (Q8VNN2 whole entry): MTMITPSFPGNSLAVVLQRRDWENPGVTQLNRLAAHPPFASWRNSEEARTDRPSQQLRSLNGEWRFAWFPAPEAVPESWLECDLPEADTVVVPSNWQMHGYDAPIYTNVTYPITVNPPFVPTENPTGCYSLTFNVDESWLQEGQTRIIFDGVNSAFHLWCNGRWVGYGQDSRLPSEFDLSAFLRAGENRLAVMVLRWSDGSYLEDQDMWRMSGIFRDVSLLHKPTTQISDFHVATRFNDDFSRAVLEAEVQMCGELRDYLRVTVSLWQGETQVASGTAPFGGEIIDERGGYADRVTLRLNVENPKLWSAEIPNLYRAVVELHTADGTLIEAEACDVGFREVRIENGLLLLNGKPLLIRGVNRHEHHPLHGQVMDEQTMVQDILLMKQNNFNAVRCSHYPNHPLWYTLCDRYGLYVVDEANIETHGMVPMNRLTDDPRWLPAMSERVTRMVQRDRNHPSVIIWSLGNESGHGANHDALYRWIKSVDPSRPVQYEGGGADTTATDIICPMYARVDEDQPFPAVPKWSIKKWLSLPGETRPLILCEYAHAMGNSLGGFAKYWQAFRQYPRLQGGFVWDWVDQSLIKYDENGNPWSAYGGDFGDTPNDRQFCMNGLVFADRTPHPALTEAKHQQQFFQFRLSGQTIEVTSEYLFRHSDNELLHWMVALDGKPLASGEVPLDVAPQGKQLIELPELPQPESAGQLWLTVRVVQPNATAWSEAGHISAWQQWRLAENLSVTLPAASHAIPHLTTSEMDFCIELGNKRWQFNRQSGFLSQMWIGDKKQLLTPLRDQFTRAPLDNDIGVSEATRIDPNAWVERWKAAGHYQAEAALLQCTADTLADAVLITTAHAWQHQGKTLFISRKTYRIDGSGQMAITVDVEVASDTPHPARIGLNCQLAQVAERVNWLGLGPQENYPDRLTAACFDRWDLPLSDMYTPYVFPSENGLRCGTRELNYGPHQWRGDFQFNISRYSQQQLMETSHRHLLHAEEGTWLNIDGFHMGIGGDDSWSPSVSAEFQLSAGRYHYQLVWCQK

CC1CCCN(CC(=O)c2ccc(Cl)c(Cl)c2)C1 (configuration not stated)
EC50 (Beta-galactosidase): 30.8 µM (active)
IC50 [1]: 4.76 µM (active)

O=C(O)Cc1sc(Nc2ccccc2)nc1-c1cccs1
IC50 [2]: > 67.5 µM (inactive)
IC50 (HEK293): > 67.5 µM (inactive)

COc1ccc(C(CNC(=O)C(Cc2ccccc2)NC(N)=O)N(C)C)cc1 (configuration not stated)
EC50 [3]: > 92.5 µM (inactive)
EC50 (Mu-type opioid receptor): > 92.5 µM (inactive)
EC50 [4]: 0.473 µM (active)
EC50 [5]: > 92.5 µM (inactive)

CCn1c(/C=C/Nc2ccccc2)[n+](CC)c2cc(Cl)c(Cl)cc21
IC50 (Protein Wnt-3a): 7.29 µM (active)
AC50 [6]: 14.5 µM (active)
EC50 [7]: 1.68 µM (active)
AC50 (A-375): 34.8 µM (active)
EC50 [8]: 2.4 µM (active)

CC(=O)CSc1ccc(-c2nc3cc(C)c(C)cc3[nH]2)cn1
EC50 [9]: 0.113 µM (active)
AC50 [10]: 0.82 µM (active)
AC50 [11]: > 52 µM (inactive)
AC50 [12]: > 52 µM (inactive)
EC50 [13]: 12.8 µM (active)
EC50 (cells): > 12 µM (inconclusive)
AC50 [6]: 3.67 µM (active)
EC50 [3]: > 92.5 µM (inactive)
EC50 [14]: 1 µM (active)
EC50 (Mu-type opioid receptor): 44.8 µM (inactive)
EC50 [15]: < 0.1 µM (active)
EC50 [5]: > 92.5 µM (inactive)
AC50 [16]: 1.11 µM (active)
AC50 [17]: 34.7 µM (active)
EC50 [18]: 0.837 µM (active)

Cc1ccnc(NC(=O)c2ccccc2NC(=O)c2ccc(Cl)cc2Cl)c1
EC50 [9]: 10.6 µM (inconclusive)
EC50 (BJ [19]): 34.8 µM (inconclusive)
EC50 [20]: 2.83 µM (active)
EC50 [13]: > 120 µM (not active)
EC50 (BJ [21]): 4.38 µM (active)
EC50 [15]: > 120 µM (not active)
EC50 (BJ [22]): 0.573 µM (active)
EC50 (BJ [23]): 2.87 µM (active)

Cn1c2ccccc2c2ccc3c(c21)C(=O)C=CC3=O
IC50 [24]: > 80 µM (inactive)
IC50 (Genome polyprotein): 15.8 µM (active)
CC50 (Vero [25]): 29.2 µM (active)
CC50 (Vero [26]): 12.6 µM (active)
AC50 [27]: 8.99 µM (active)
IC50 (Beta-arrestin-1): 4.59 µM (active)

Cc1cc(N2CCN(c3ncccn3)CC2)nc2ccccc12
IC50 [28]: 469 µM (active)

Clc1ccc(/C=N/Nc2ncnc3ccccc23)cc1Cl
IC50 [2]: > 67.5 µM (inactive)
EC50 (H4): 7.13 µM (active)
EC50 [29]: 0.181 µM (active)
IC50 (HEK293): > 67.5 µM (inactive)
